Laboratory results taken from patent publication US10213415B2, “Compounds as opioid receptor modulators” (JANSSEN PHARMACEUTICA NV, priority 2004, dated 2019).
Like-named read-outs stand apart in the source and are kept apart here.

Experiments:
[1] = target: T1, delta opioid receptor (NG108-15 cell membranes) (Mus musculus, UniProt P32300); assay: Delta Opioid Receptor Functional Assay: [35S]GTPγS Binding in NG108-15 Cell Membranes, Version 2; assay type: biochemical; settings: NG108-15 cell membranes, version 2; for EC50: [35S]GTPγS, read-out: DOR GTP-binding Assay_v2_ EC50; for DOR GTP-binding Assay v2 (% I): % inhibition of agonist-stimulated GTPγS binding
T1 construct: NG108-15 cell membranes were purchased from Applied Cell Sciences (Rockville, Md.); host or cells: NG108-15 cells (membranes purchased)
T1 sequence (P32300 whole entry): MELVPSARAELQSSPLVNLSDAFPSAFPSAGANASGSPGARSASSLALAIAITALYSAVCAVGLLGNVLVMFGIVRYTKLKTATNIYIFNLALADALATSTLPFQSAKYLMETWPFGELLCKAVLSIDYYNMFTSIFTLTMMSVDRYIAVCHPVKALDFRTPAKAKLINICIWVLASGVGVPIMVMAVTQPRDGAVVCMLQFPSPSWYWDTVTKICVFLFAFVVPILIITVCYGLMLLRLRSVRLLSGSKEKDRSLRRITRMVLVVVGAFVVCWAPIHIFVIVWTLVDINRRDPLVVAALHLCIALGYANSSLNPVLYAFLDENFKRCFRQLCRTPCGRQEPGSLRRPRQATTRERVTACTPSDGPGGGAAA
Experimental: NG108-15 cell membranes were purchased from Applied Cell Sciences (Rockville, Md.). 8 mg/ml of membrane protein suspended in 10 mM TRIS-HC pH 7.2, 2 mM EDTA, 10% sucrose.
Membranes were maintained at 4-8° C. A portion (1 ml) of membranes was added into 10 ml cold binding assay buffer. The assay buffer contained 50 mM Tris, pH 7.6, 5 mM MgCl2, 100 mM NaCl, 1 mM DTT and 1 mM EGTA. The membrane suspension was homogenized with a Polytron for 2 times and centrifuged at 3000 rpm for 10 min. The supernent was then centrifuged at 18,000 rpm for 20 min. The pellet was saved in a tube and 10 ml assay buffer was added into the tube. The pellet and buffer were mixed with a Polytron.
The pellet membranes (75 μg/ml) were preincubated with SPA (10 mg/ml) at 25° C. for 45 min in the assay buffer. The SPA (5 mg/ml) coupled with membranes (37.5 μg/ml) was then incubated with 0.1 nM [^35S] GTPγS in the same Tris buffer containing 100 μM GDP in total volume of 200 μl. Increasing concentrations of receptor agonists were used to stimulate [^35S] GTPγS binding. The basal binding was tested in the absent agonists and no specific binding was tested in the present 10 μM unlabeled GTPγS. The data were analyzed on a Top counter.
[formula] % Inhibition=(% stimulation by 1 μM SNC80−% stimulation by 1 μM SNC80 in presence of test compound)×100/(% Stimulation by 1 μM SNC80−100) % of Basal=(stimulate−non specific)*100/(basal−non specific). EC50 values were calculated using GraphPad Prism.

[2] = target: T2, mu opioid receptor (Rattus norvegicus, UniProt P33535); assay: Rat Brain Mu Opioid Receptor Binding Assay (and Version 2a, [3H]DAMGO); settings: rat forebrain membranes, margin of error 10-20%, read-out: r Ki μ
T2 construct: from tissue; host or cells: forebrain of male Wistar rats
T2 sequence (P33535 whole entry): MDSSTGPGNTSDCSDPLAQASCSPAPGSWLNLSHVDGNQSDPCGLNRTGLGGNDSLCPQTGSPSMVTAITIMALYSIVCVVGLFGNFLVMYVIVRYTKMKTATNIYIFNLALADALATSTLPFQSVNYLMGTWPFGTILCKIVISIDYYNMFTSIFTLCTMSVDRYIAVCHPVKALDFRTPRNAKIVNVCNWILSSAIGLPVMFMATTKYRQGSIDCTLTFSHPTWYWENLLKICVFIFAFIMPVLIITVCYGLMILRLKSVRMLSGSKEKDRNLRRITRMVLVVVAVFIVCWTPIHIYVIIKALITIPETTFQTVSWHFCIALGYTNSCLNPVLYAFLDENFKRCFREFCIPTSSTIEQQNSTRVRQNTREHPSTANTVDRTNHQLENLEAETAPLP
Outline: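 Rat forebrain membranes from male Wistar rats in 50 mM Tris-HCl pH 7.4 with 5 mM MgCl2 incubated with 0.8 nM [3H]DAMGO for 2.5 h at 25° C., then filtered and counted. Data given as % inhibition of specific binding at single concentrations or as Ki from concentration series.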

[3] = target: T3, delta opioid receptor (Rattus norvegicus, UniProt P33533); assay: Rat Brain Delta Opioid Receptor Binding Assay ([3H]DPDPE); settings: rat forebrain membranes, margin of error 10-20%, read-out: r Ki δ
T3 construct: from tissue; host or cells: forebrain of male Wistar rats
T3 sequence (P33533 whole entry): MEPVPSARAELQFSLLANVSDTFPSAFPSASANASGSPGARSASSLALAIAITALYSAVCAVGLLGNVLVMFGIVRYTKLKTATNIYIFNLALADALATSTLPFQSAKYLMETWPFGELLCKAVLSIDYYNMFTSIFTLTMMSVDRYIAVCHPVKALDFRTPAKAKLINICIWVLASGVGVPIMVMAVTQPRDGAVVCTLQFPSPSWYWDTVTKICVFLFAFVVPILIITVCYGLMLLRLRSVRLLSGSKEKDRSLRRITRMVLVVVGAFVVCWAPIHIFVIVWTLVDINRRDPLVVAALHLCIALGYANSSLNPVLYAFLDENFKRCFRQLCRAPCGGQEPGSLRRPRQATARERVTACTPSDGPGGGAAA
Outline: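 Rat (male Wistar) forebrain membranes in 50 mM Tris-HCl pH 7.4 with 5 mM MgCl2, incubated with ~4 nM [3H]DPDPE for 2.5 h at 25 °C. Bound ligand collected by filtration and scintillation counting. Single-concentration data given as % inhibition of specific binding; concentration series fitted to Ki.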

[4] = target: T4, human mu opioid receptor (Homo sapiens, UniProt P35372); assay: Human Mu Opioid Receptor Binding Assay (CHO membranes, 3H-Damgo); settings: read-out: hKi μ
T4 construct: purchased Perkin Elmer RBHOMM400UA; host or cells: Chinese Hamster Ovary cells (recombinant expression)
T4 sequence (P35372 whole entry): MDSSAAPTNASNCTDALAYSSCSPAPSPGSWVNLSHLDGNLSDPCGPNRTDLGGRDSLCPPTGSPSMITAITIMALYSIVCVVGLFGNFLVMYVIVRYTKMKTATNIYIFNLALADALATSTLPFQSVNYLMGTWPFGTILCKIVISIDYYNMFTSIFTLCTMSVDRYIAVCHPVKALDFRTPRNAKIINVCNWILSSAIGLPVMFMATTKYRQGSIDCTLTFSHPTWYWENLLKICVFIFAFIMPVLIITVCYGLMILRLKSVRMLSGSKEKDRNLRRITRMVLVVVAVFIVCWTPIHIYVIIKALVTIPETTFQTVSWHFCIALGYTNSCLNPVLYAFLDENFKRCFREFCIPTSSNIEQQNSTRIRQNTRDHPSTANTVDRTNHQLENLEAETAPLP
Outline: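 Membranes from CHO cells expressing human mu opioid receptor, 300 μg/mL, in 50 mM Tris pH 7.5, 5 mM MgCl2. Incubated with compound and ³H-Damgo (3.6 nM before mixing) for 2 h at room temperature, filtered, counted by scintillation. Nonspecific binding with 1 μM unlabelled Damgo.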

[5] = target: T5, delta opioid receptor (CHO-hδ cell membranes) (Homo sapiens, UniProt P41143); assay: Delta Opioid Receptor Functional Assay: [35S]GTPγS Binding in CHO-hδ Cell Membranes, Version 1; assay type: biochemical; settings: read-out: DOR GTP-binding Assay_v1 EC50
T5 construct: purchased Receptor Biology, Inc. (Baltimore, Md.); host or cells: CHO cells (recombinant expression)
T5 sequence (P41143 whole entry): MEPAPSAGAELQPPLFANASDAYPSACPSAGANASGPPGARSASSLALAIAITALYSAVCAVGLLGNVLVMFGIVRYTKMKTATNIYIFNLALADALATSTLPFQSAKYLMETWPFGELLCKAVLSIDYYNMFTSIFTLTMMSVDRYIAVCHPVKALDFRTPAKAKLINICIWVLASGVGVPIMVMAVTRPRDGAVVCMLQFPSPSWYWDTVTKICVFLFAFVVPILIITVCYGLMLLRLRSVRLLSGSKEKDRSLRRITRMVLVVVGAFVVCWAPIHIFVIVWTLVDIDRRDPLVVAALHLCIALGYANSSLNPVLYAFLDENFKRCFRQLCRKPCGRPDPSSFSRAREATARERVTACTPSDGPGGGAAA
Experimental: CHO-hδ cell membranes were purchased from Receptor Biology, Inc. (Baltimore, Md.). 10 mg/ml of membrane protein suspended in 10 mM TRIS-HC pH 7.2, 2 mM EDTA, 10% sucrose.
Membranes were maintained at 4-8° C. A portion (1 ml) of membranes was added into 15 mL cold binding assay buffer. The assay buffer contained 50 mM HEPES, pH 7.6, 5 mM MgCl2, 100 mM NaCl, 1 mM DTT and 1 mM EDTA. The membrane suspension was homogenized with a Polytron for 2 times and centrifuged at 3000 rpm for 10 min. The supernent was then centrifuged at 18,000 rpm for 20 min. The pellet was saved in a tube and 10 ml assay buffer was added into the tube. The pellet and buffer were mixed with a Polytron.
The pellet membranes (20 μg/ml) were preincubated with SPA (10 mg/ml) at 25° C. for 45 min in the assay buffer. The SPA (5 mg/ml) coupled with membranes (10 μg/ml) was then incubated with 0.5 nM [^35S]GTPγS in the same HEPES buffer containing 50 μM GDP in total volume of 200 μl. Increasing concentrations of receptor agonists were used to stimulate [^35S]GTPγS binding. The basal binding was tested in the absent agonists and no specific binding was tested in the present 10 μM unlabeled GTPγS. The data were analyzed on a Top counter.
Data The % of Basal=(stimulate−non specific)*100/(basal−non specific). EC50 values were calculated using a Prism program.

[6] = target: T6, human delta subtype 2 opioid receptor (Homo sapiens, UniProt P41143); assay: Human Delta Opioid Receptor Binding Assay (CHO membranes, 3H-Naltrindole); settings: read-out: hKi δ
T6 construct: purchased Perkin Elmer RBHODM400UA; host or cells: Chinese Hamster Ovary cells (recombinant expression)
T6 sequence (P41143 whole entry): as above
Outline: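 Filtration binding on CHO-cell membranes expressing the human receptor, in 50 mM Tris pH 7.5 with 5 mM MgCl2, 30 min at room temperature; 3H-naltrindole diluted to 6 nM before mixing 1:1 with compound. Nonspecific binding defined with 1 μM unlabelled naltrindole; inhibition relative to no-inhibitor wells.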

[7] = target: T7, mu opioid receptor (CHO-hMOR cell membranes) (Homo sapiens, UniProt P35372); assay: Mu Opioid Receptor Functional Assay: [35S]GTPγS Binding in CHO-hMOR Cell Membranes, Versions 1 and 2; assay type: biochemical; settings: for MOR GTP binding assay_v1 (% I): version 1, % inhibition of agonist-stimulated GTPγS binding; for MOR GTP assay_v1 % of Basal: version 1, basal binding = 100%; for MOR GTP binding assay_v2 (% I): version 2, % inhibition of agonist-stimulated GTPγS binding; for EC50: version 2, read-out: MOR GTP binding assay v2 EC50
T7 construct: purchased Receptor Biology, Inc. (Baltimore, Md.); host or cells: CHO cells (recombinant expression)
T7 sequence (P35372 whole entry): as the sequence (P35372 whole entry) above
Outline: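 CHO-hMOR membranes (10 μg/ml) on WGA SPA beads, preincubated 45 min at 25 °C, then incubated with 0.5 nM [35S]GTPγS in HEPES pH 7.6, 5 mM MgCl2, 100 mM NaCl, 1 mM DTT, 1 mM EDTA. Non-specific binding with 10 μM unlabeled GTPγS; agonist EC50 from concentration-response, antagonism as inhibition of 1 μM SNC80-stimulated binding.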

[8] = test system: novel environment-stressed mice; assay: In Vivo Assay-Stress-Induced Fecal Output (Fecal Output for 1 hr); parameters: species or system mouse; settings: 1 hr; for Fecal Output (# pellets) cpd: novel environment-stressed mice; for response vs control in vivo at 10 mg/kg / response vs control in vivo at 30 mg/kg: Mus musculus, po, 1 h
Outline: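 Adult male Crl:CD-1(ICR) mice (˜30-35 g; at least 10 per dose group) were split into acclimated non-stressed controls, held individually for 16-18 hr in wire-mesh-bottom cages, and non-acclimated stressed groups. Mice were dosed intragastrically with vehicle or test compound in 0.5% methylcellulose, housed individually in novel cages over absorbent cardboard, and fecal pellets per mouse were counted hourly.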

Structure (SMILES) | EC50 [1] [nM] | DOR GTP-binding Assay v2 (% I) [1] [%] | Ki [2] [nM] | Ki [3] [nM] | Ki [4] [nM] | MOR GTP binding assay_v2 (% I) [7] [%] | EC50 [7] [nM] | further results
Cc1cc(C(N)=O)cc(C)c1C[C@H](N)C(=O)N(Cc1ccccc1C(N)=O)[C@@H](C)c1nc(-c2ccccc2)c[nH]1 [Cpd 1] | 88 | 22.10 | 1.1 | 13.2 | 3.6 |  |  | 
Cc1cc(O)cc(C)c1C[C@H](N)C(=O)N(Cc1nc(-c2ccc3ccccc3c2)c(C)[nH]1)C(C)C [Cpd 150] |  |  |  |  |  |  |  | EC50 [5]: 49 nM; Ki [6]: 992 nM; MOR GTP binding assay_v1 (% I) [7]: 53.35%; MOR GTP assay_v1 % of Basal [7]: 476.63%
Cc1cc(O)cc(C)c1C[C@H](N)C(=O)N(C)[C@@H](CC(C)C)c1nc(-c2ccccc2)c[nH]1 [Cpd 174] |  |  |  |  |  |  |  | EC50 [5]: 20 nM; MOR GTP binding assay_v1 (% I) [7]: 42.00%; MOR GTP assay_v1 % of Basal [7]: 864.00%
COc1ccc(CN(C(=O)[C@@H](N)Cc2c(C)cc(C(N)=O)cc2C)[C@@H](C)c2nc(-c3ccccc3)c[nH]2)cc1C(N)=O [Cpd 295] | 2.2 | 71.66 | 0.18 | 3.95 |  | 8.21 | 1.4 | 
C[C@@H](c1nc(-c2ccccc2)c[nH]1)N(Cc1cccc(-c2nnn[nH]2)c1)C(=O)[C@@H](N)Cc1ccc(C(N)=O)cc1 [Cpd 267] | 6 | 31.76 | 1.53 | 0.46 | 6.88 |  |  | 
Cc1cc(C(N)=O)cc(C)c1C[C@H](N)C(=O)N(C)[C@@H](C)c1nc(-c2ccccc2)c[nH]1 [Cpd 196] |  |  |  |  |  |  |  | EC50 [5]: 24 nM; Fecal Output (# pellets) cpd ([8]; 10 mg/kg oral): 9.2 pellets; Fecal Output (# pellets) cpd ([8]; 30 mg/kg oral): 4.3 pellets; response vs control in vivo at 10 mg/kg ([8]; 10 mg/kg oral, relative to acclimated control, read-out: Fecal Output cpd % control): 249%; response vs control in vivo at 10 mg/kg ([8]; 10 mg/kg oral, relative to novel environment stress (NES) vehicle group, read-out: Fecal Output cpd % NES): 65.7%; response vs control in vivo at 30 mg/kg ([8]; 30 mg/kg oral, relative to acclimated control, read-out: Fecal Output cpd % control): 391%; response vs control in vivo at 30 mg/kg ([8]; 30 mg/kg oral, relative to novel environment stress (NES) vehicle group, read-out: Fecal Output cpd % NES): 45.3%; MOR GTP binding assay_v1 (% I) [7]: 1.00%; MOR GTP assay_v1 % of Basal [7]: 620.00%
COC(=O)c1cccc(CN(C(=O)[C@@H](N)Cc2c(C)cc(C(N)=O)cc2C)[C@@H](C)c2nc(-c3ccccc3)c[nH]2)c1 [Cpd 9] | 3.4 | 67.13 | 0.16 | 0.11 | 10.9 |  |  | 
COc1ccc(CN(C(=O)[C@@H](N)Cc2c(C)cc(C(N)=O)cc2C)[C@@H](C)c2nc(-c3ccccc3)c[nH]2)cc1C(=O)N1CCOCC1 [Cpd 296] | 7.9 | 69.41 | 0.49 | 2.2 |  | 9.35 | 2.2 | 
COc1ccc(CN(C(=O)[C@@H](N)Cc2c(C)cc(C(N)=O)cc2C)[C@@H](C)c2nc(-c3ccccc3)c[nH]2)cc1C(=O)NCCO [Cpd 299] | 2.3 |  | 0.44 | 1.16 |  | 12.11 | 1 | 
COc1ccc(CN(C(=O)[C@@H](N)Cc2c(C)cc(C(N)=O)cc2C)[C@@H](C)c2nc(-c3ccccc3C(=O)O)c[nH]2)cc1OC [Cpd 29] | > 10000 | 79.05 | 25 | 28 | 38 |  |  | 
COc1ccc(CN(C(=O)[C@@H](N)Cc2c(C)cc(C(N)=O)cc2C)[C@@H](C)c2nc(-c3ccccc3)c[nH]2)cc1C(=O)NC1CC1 [Cpd 300] | 32 |  | 0.09 | 0.29 |  | 15.40 | 2.6 | 
COc1ccc(CN(C(=O)[C@@H](N)Cc2c(C)cc(C(N)=O)cc2C)[C@@H](C)c2nc(-c3ccc(Br)cc3)c[nH]2)cc1C(=O)O [Cpd 291] | > 10000 | 96.52 | 0.47 | 0.12 |  |  |  | 
COc1ccc(CN(C(=O)[C@@H](N)Cc2c(C)cc(C(N)=O)cc2C)[C@@H](C)c2nc(-c3cccc(Br)c3)c[nH]2)cc1C(=O)O [Cpd 288] | > 10000 | 74.54 | 0.43 | 0.17 |  |  |  | 
